Results taken from a melting point compilation (Tetko et al.; mined from patent text by program, amines drawn as free bases though some values may be those of a salt).

Row | melting point [°C] | Compound
1 | 260 to 262 | O=c1c(O)c(-c2ncn(Cc3ccc(F)cc3)n2)oc2ccccc12
2 | 160 to 162 | C[C@@]1(F)[C@H](OC(=O)c2ccccc2)[C@@H](COC(=O)c2ccccc2)O[C@H]1n1cnc2c(Cl)nc(N)nc21
3 | 245 to 249 | CCOC(=O)c1cccc2c(=O)cc(-c3ccc(OCc4ccc5ccccc5c4)cc3)oc12
4 | 142 to 143 | Cc1ccccc1NC(=O)Nc1ccc(CN)cc1
5 | 154 to 155 | CS(=O)(=O)N(CCCl)N(S(C)(=O)=O)S(C)(=O)=O
6 | 58 to 60 | Cc1cncc(C)c1-c1c(C)cc(C=Cc2ccc(C(C#N)C#N)cc2)cc1C
7 | 142 to 144 | COc1ccc(C2=NN(C3CCCC3)C(=O)[C@H]3CC=CC[C@@H]23)cc1O (relative stereo)
8 | 140 to 142 | CCOc1cc2c(cc1OCC)-c1c(OCC)c(OCC)cc3c1C(C2)N(C)CC3O (stereo not drawn)
9 | 184 to 187 | CN1C(=O)CC[C@]2(C)c3ccc(-c4ccc(O)c(C=O)c4)cc3CC[C@@H]12
10 | 56 to 57 | CCCCOc1c(NC(C)(C)CC)c(=O)c1=O
11 | 64 to 66 | OCc1ccc(OCCCCCCCCCCC2c3c(c4ccccc4c4ccccc34)-c3c2c2ccccc2c2ccccc32)cc1
12 | 177 to 179 | CCOC(=O)C1=C(c2ccc(-n3c(C)nc4cnccc43)cc2)NC(C)=C(C(=O)OCCC#N)C1c1ccccc1Cl (stereo not drawn)
13 | 254 to 257 | O=C1CCCC2=C1C(c1ccc(F)c(Br)c1)C1=C(CCCC1)N2 (stereo not drawn)
14 | 149 to 156 | CCN(CCCc1c[nH]c2ccc(Cl)cc12)C1COc2c(F)ccc(C(N)=O)c2C1 (stereo not drawn)
15 | 105 to 106 | O=[N+]([O-])c1ccc(C=Cc2ccc(Cl)c(Cl)c2)cc1O
16 | 152 to 154 | CC(O)(c1ccccc1)C1CCN1C(c1ccccc1)c1ccccc1 (stereo not drawn)
17 | 69 to 82.3 | COCc1cnc(NC(=O)C(Cc2ccc(F)cc2)c2ccc(S(C)(=O)=O)cc2)cn1 (stereo not drawn)
18 | 287 | O=C(Nc1nn[nH]n1)c1cnc(N2CCOCC2)nc1OC1CCCCCC1
19 | 55 to 57 | COC(=O)c1sc(Cl)nc1-c1ccccc1
20 | 172 to 174 | CCOc1nc(C)nc(N)n1
21 | 131 to 132 | O=[N+]([O-])CS(=O)(=O)c1ccc2c(c1)OCO2
22 | 160 to 164 | COC(=O)C(OC)(OC)C(=O)Nc1cc(Cl)cc(Cl)c1
23 | 128 to 135 | COc1ccc(COc2cccc(OC)c2C(=O)/C=C(\Nc2cnc(C#N)cn2)SC)cc1
24 | 280 to 282 | COc1ccc(OC)c(-c2c(O)c3ccc(Cl)cc3[nH]c2=O)c1

Row | melting point [°C] | Compound
25 | 139 to 140 | O=C1COC2(CCN(CCC3COc4ccccc4O3)CC2)CN1 (stereo not drawn)
26 | 73 to 74 | CCOC(=O)c1c(N)nc(C)c(C(=O)CCCCCCCCCCBr)c1-c1cccc([N+](=O)[O-])c1
27 | 102 to 103 | Cc1cccc2c1nc(COc1ccc(Cl)cc1)n2CCC(C)C(=O)NCCCN1CCCCC1 (stereo not drawn)
28 | 208 | N#CC1=C(c2ccc(Br)s2)Nc2n[nH]cc2C1c1cccc2nonc12 (stereo not drawn)
29 | 245 to 246 | O=C(CN1C(=O)C2(COc3cc4c(cc32)CCO4)c2c(Br)cccc21)Nc1ccccc1F (stereo not drawn)
30 | 88 | COc1ccccc1S(=O)(=O)OCC(=O)c1ccccc1
31 | 84 to 85 | C=C(c1nc2ccccc2s1)C1CCN(CCc2ccc(OC)cc2)CC1
32 | 107 to 108 | CNC(=O)N(O)C(C)c1ccc(C)c(Br)c1 (stereo not drawn)
33 | 76.5 to 88.5 | Cc1cc(C2(C(F)(F)F)CC(c3ccc(S(C)=O)cc3)=NO2)ccc1NC(=O)OC(C)(C)C (stereo not drawn)
34 | 144 to 148 | CCc1noc(C)c1-c1[nH]c2ccccc2c1C(=O)CCC(=O)N(C)C
35 | 193 to 194 | COc1ccc(C(=O)CN(C)C(=O)/C=C/c2cccnc2)cc1OC
36 | 121 to 123 | O=C1CC(c2ccc(Cl)cc2)ON1CC(O)CN1CCOCC1 (stereo not drawn)
37 | 94 to 96 | COCCOC(=O)NCC(C)(C)N
38 | 110 to 112 | C=C(c1ccn[nH]1)c1ccc(OCC(=O)OCC)c(Cl)c1Cl
39 | 195 to 196 | CCn1cc(C(=O)O)c(=O)c2cc(F)c(-c3ccnc(CNC(=O)OCc4ccccc4)n3)c(F)c21
40 | 111 to 112 | CCCCN(CC)CC(=O)OC1CC2(C)C(C(C)=O)CCC2C2CCC3CC(O)CCC3(C)C12 (stereo not drawn)
41 | 264 to 266 | O=C(O)c1cn(-c2nccs2)c2nc(Cl)cc(Cl)c2c1=O
42 | 128 to 129 | Nc1ncc(C#Cc2ccccc2)c(NCCOCCO)n1
43 | 96 to 98 | CC(C)(C)OC(=O)NCCC(=O)NCc1cccc2c1C(=O)N(C1CCC(=O)NC1=O)C2=O (stereo not drawn)
44 | 158 to 160 | CCCCCCOc1c(OC)cc(C(=O)NN=C2CCCCC2=Cc2ccccc2)cc1OC
45 | 187 | CC(C)NCC(O)COc1ccc2c(=O)cc(-c3ccc(O)c(O)c3)oc2c1 (stereo not drawn)
46 | 156 to 157 | CCC(CC)n1cc(Cl)nc(N2CCc3cc(Br)cc(Cl)c32)c1=O
47 | 115 to 117 | Brc1ccccc1OCc1ccc2ccccc2n1
48 | 136 | CC(C)[C@]1(c2ccccc2OCC#CCCl)Sc2ccccc2N(C)C1=O

Row | melting point [°C] | Compound
49 | 76 to 77 | Cc1c(SCCCSCc2ccc(Cl)s2)ccnc1CSc1ccncc1
50 | 209 to 211 | NC(=O)c1c(Cl)c(-c2ccccc2)n2c1CN(S(=O)(=O)Nc1ccc(C(F)(F)F)cc1)CC2
51 | 56 | Cc1ccccc1OCc1ccccc1N
52 | 209 | COc1cc(Nc2nccc(-c3cccc(OCCCN4C(=O)c5ccccc5C4=O)c3)n2)cc(OC)c1OC
53 | 193 to 194 | CC(C)(C)OC(=O)N1CCCC(c2nc(-c3ccncc3)c(-c3ccc(F)cc3)[nH]2)C1 (stereo not drawn)
54 | 165 to 168 | COc1ccc(C)cc1NC(=O)Nc1ccc(N2CCN(C(=O)Nc3ncccc3C(=O)O)CC2)cc1
55 | 227 to 229 | O=C1CCC(N2C(=O)c3cccc(CNC(=O)c4ccccc4)c3C2=O)C(=O)N1 (stereo not drawn)
56 | 239 to 240 | CCOCc1nc2cnc3cc(O)ccc3c2n1CC1COC(C)(C)O1 (stereo not drawn)
57 | 124 to 125 | O=C1OCCc2ccc([N+](=O)[O-])cc21
58 | 109 to 111 | O=C(c1ccccc1)c1ccc(CCl)cc1
59 | 138 to 139 | CCCCOc1ccc2cc(Nc3ccc(O)cc3)ccc2c1
60 | 56 to 58 | CCCCC1=CC(=C(Br)Br)N(Cc2ccccc2)C1=O
61 | 200 to 203 | COC(=O)c1ccc(NC(C)=O)c(C=NO)c1
62 | 103 to 104 | CCCCCCCCCCCCOC(=O)c1ccc2cc(O)ccc2c1
63 | > 160 | CC(=O)Nc1nc2c(s1)-c1nc(N3CCCC3=O)ncc1CC2
64 | 285 to 287 | Cc1ccc2cccnc2c1C(=O)Nc1nnn[nH]1
65 | 158 to 160 | CC(C)N1C(=O)[C@@H](CCCC(=O)O)O[C@H](c2ccccc2Cl)c2cc(Cl)ccc21 (relative stereo)
66 | 117 to 120 | CC(C)(c1ccccc1)n1nnc(-c2ccccc2-c2ccc(CO)cc2)n1
67 | > 200 | CNn1c(C)nc(N2CCc3ccccc3CC2)c(C#N)c1=O
68 | 123 to 124 | COc1ccccc1Cc1ccc(C(=O)C2=C(O)C(=O)N(C(C)C)C2)o1
69 | 118 to 119 | Clc1ccc2c(c1)C(c1ccccc1)=NCc1ccccc1-2
70 | 224 | Cc1cc(-c2ccc(C(F)(F)F)cc2)nc(-c2cccc(-c3cccc(S(N)(=O)=O)c3)c2)n1
71 | 180 to 182 | CC(=O)OC(C)c1cc2c(s1)C(=O)c1c(C(C)OC(C)=O)csc1C2=O (stereo not drawn)
72 | 59 | CCOc1ccc(CC(=O)OCc2ccc(C#N)cc2)cc1

Row | melting point [°C] | Compound
73 | 165 to 166 | O=C(O)CCCNC(=O)c1ccccc1NC(=O)c1cccc(Cl)c1
74 | 175 | CCc1ccc2c(c1)C=Cc1cc(C)ccc1C2c1cn(-c2ccnc(N3CCCC3C(=O)O)n2)c(=O)[nH]c1=S (stereo not drawn)
75 | 124 to 125 | O=C1C=C(c2cccc(C(F)(F)F)c2)CO1
76 | 185 to 187 | CC(C)N1C(=O)NC(c2ccc3c(c2)OCCO3)c2cc3c(cc21)OCO3 (stereo not drawn)
77 | 167 to 169 | COc1ccc(C=C(C)C(=O)O)cc1F
78 | 140 to 145 | O=C(c1ccccc1)N1CCc2[nH]c3ccc(-c4ccccc4)cc3c2CC1
79 | 264 to 266 | O=C1NC(=O)C2(CCCCC2)N1c1cccnc1
80 | 98 to 100 | CN(CCO)Cc1cc(C(=O)c2cccs2)cc(C(C)(C)C)c1O
81 | 87 to 91 | CN(C)CCOc1ccc(Nc2nccc(-c3c[nH]nc3-c3ccc(OCc4ccccc4)cc3)n2)cc1
82 | 93 to 95 | COC(=O)C(=O)c1ccc(OCCCCOc2ccc3ccccc3c2)cc1
83 | 302 to 306 | CCCn1cc2c(C3C(=O)Nc4ccc(Cl)cc43)ncnc2n1 (stereo not drawn)
84 | 80 to 82 | COC(=O)Cc1ccc2c(c1)CC(NS(=O)(=O)c1ccc(Cl)cc1)C2 (stereo not drawn)
85 | 227 to 228 | COC(=O)c1ccc(-c2nnc(-c3cccc(NS(=O)(=O)c4ccc(C)cc4)c3)o2)cc1
86 | 178 to 180 | CCn1c2ccccc2n2c(=O)c(C(=O)NC)cnc12
87 | 142 to 144 | CC1Oc2ccc(C(F)(F)F)cc2NC1=O (stereo not drawn)
88 | 155 to 157 | COCC1CN(c2ccc3ccc(O)cc3c2)C(=O)O1 (stereo not drawn)
89 | 272 to 275 | Cc1ccc(F)cc1C(=O)Nc1ccc(C(=O)O)cc1
90 | 144 to 146 | COC(=O)c1cccc(NC(=O)C=Cc2ccc(OC)c(OC)c2)c1N
91 | 91 to 94 | Cn1c(C(F)(F)F)cc(=O)n(-c2cc(OCSc3ccccc3)c(Cl)cc2F)c1=O
92 | 168 to 170 | CCN(CC)c1ccc(C2(c3ccc(N(C)C)cc3N(C)C)OC(=O)c3ccccc32)cc1 (stereo not drawn)
93 | 104 to 105 | CCN(CC)c1ccc(C2OC(C)(C)N=C2c2ccccc2)cc1 (stereo not drawn)

Row | Compound | melting point [°C]
94 | O=S1(=O)c2cccc3cccc(c23)N1CCCN1CC=C(c2c[nH]c3ccc(F)cc23)CC1 | 224
95 | O=C1CCN(C(=O)C(F)(F)F)CC1 | 68
96 | CCN(C(C)=O)c1cccc(-c2ccnc3c([N+](=O)[O-])cnn23)c1 | 176 to 178
97 | CN1CC=C(c2c[nH]c3ccc(C4CN=CS4)cc23)CC1 (stereo not drawn) | 260 to 263
98 | CC1CC(O)CC2=CCC3C4CCC(=O)C4(C)CCC3C21C (stereo not drawn) | 167 to 169
